Measured values taken from US20070010671A1, “Novel quinazoline derivatives and methods of treatment related to the use thereof” (priority 2003, published 2007).

Target: MCH receptor (Homo sapiens, UniProt Q99705)
Test: High throughput functional screening FLIPR/FDSS6000: inhibition of MCH-evoked intracellular Ca2+ changes
Assay type: cell-based
Conditions: class by percent of control at 10^-7 M or IC50
In short: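 In a kinetic calcium-flux format, compounds were tested at various concentrations against 50 nM MCH. Fluo4-loaded cells expressing a constitutively active, non-endogenous receptor were imaged at 488/530 nm for 290 s after agonist addition.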

Row | Compound | class
1 | CN(C)c1nc(N[C@H]2CC[C@@H](NC(=S)Nc3ccccc3OC(F)(F)F)CC2)nc2ccccc12 [compound 207, N-(cis-4-{[4-(dimethylamino)quinazolin-2-yl]amino}cyclohexyl)-N′-[2-(trifluoromethoxy)phenyl]thiourea] | 2 (Class 2: The value of percent of control at 10^−7 M was from 40% to 60% or the value of IC50 was from 50 nM to 200 nM.)
2 | CN(C)c1nc(N[C@H]2CC[C@@H](NC(=S)Nc3ccccc3C(F)(F)F)CC2)nc2ccccc12 [compound 208] | 3 (Class 3: The value of percent of control at 10^−7 M was more than 60% or the value of IC50 was more than 200 nM.)
3 | CN(C)c1nc(N[C@H]2CC[C@@H](NC(=S)Nc3ccc(F)c(F)c3F)CC2)nc2ccccc12 [compound 209, N-(cis-4-{[4-(dimethylamino)quinazolin-2-yl]amino}cyclohexyl)-N′-(2,3,4-trifluorophenyl)thiourea] | 2 (Class 2: The value of percent of control at 10^−7 M was from 40% to 60% or the value of IC50 was from 50 nM to 200 nM.)
4 | CN(C)c1nc(N[C@H]2CC[C@@H](NC(=S)Nc3cccc(Cl)c3Cl)CC2)nc2ccccc12 [compound 210] | 3 (Class 3: The value of percent of control at 10^−7 M was more than 60% or the value of IC50 was more than 200 nM.)
5 | CN(C)c1nc(N[C@H]2CC[C@@H](NC(=S)Nc3ccc(F)cc3F)CC2)nc2ccccc12 [compound 211] | 3 (Class 3: The value of percent of control at 10^−7 M was more than 60% or the value of IC50 was more than 200 nM.)
6 | COc1ccc(OC)c(NC(=S)N[C@H]2CC[C@@H](Nc3nc(N(C)C)c4ccccc4n3)CC2)c1 [compound 212] | 2 (Class 2: The value of percent of control at 10^−7 M was from 40% to 60% or the value of IC50 was from 50 nM to 200 nM.)
7 | CN(C)c1nc(N[C@H]2CC[C@@H](NC(=S)Nc3c(F)cccc3F)CC2)nc2ccccc12 [compound 213] | 3 (Class 3: The value of percent of control at 10^−7 M was more than 60% or the value of IC50 was more than 200 nM.)
8 | CN(C)c1nc(N[C@H]2CC[C@@H](NC(=S)Nc3ccc([N+](=O)[O-])cc3Cl)CC2)nc2ccccc12 [compound 214] | 2 (Class 2: The value of percent of control at 10^−7 M was from 40% to 60% or the value of IC50 was from 50 nM to 200 nM.)
9 | CN(C)c1nc(N[C@H]2CC[C@@H](NC(=S)Nc3ccccc3OC(F)F)CC2)nc2ccccc12 [compound 215] | 3 (Class 3: The value of percent of control at 10^−7 M was more than 60% or the value of IC50 was more than 200 nM.)
10 | CCc1ccccc1NC(=S)N[C@H]1CC[C@@H](Nc2nc(N(C)C)c3ccccc3n2)CC1 [compound 216] | 1 (Class 1: The value of percent of control at 10^−7 M was less than 40% or the value of IC50 was less than 50 nM.)
11 | CN(C)c1nc(N[C@H]2CC[C@@H](NC(=S)Nc3cc(C(F)(F)F)ccc3F)CC2)nc2ccccc12 [compound 217] | 3 (Class 3: The value of percent of control at 10^−7 M was more than 60% or the value of IC50 was more than 200 nM.)
12 | CN(C)c1nc(N[C@H]2CC[C@@H](NC(=S)Nc3ccccc3F)CC2)nc2ccccc12 [compound 218] | 3 (Class 3: The value of percent of control at 10^−7 M was more than 60% or the value of IC50 was more than 200 nM.)
13 | CN(C)c1nc(N[C@H]2CC[C@@H](NC(=S)Nc3ccccc3I)CC2)nc2ccccc12 [compound 219] | 2 (Class 2: The value of percent of control at 10^−7 M was from 40% to 60% or the value of IC50 was from 50 nM to 200 nM.)
14 | COc1cc([N+](=O)[O-])ccc1NC(=S)N[C@H]1CC[C@@H](Nc2nc(N(C)C)c3ccccc3n2)CC1 [compound 220, N-(cis-4-{[4-(dimethylamino)quinazolin-2-yl]amino}cyclohexyl)-N′-(2-methoxy-4-nitrophenyl)thiourea] | 1 (Class 1: The value of percent of control at 10^−7 M was less than 40% or the value of IC50 was less than 50 nM.)
